One series concerns hCMVEC cells. The series is described as follows: MTT assay for cell viability. Type of series: cell-based, human. The settings on record: 200 μM, 24-hour treatment. The method, then:
Stock MTT was prepared by dissolving 5 mg in 1 mL PBS producing a concentration of 5 mg/mL. After the treatment incubation period of cells seeded in a 96 well-plate (at 1×10^4 cells/well) the media was removed and replaced with 100 μL of PBS. 10 μL of MTT stock solution was added to each well, except for those that were used as a blank, and left to incubate at 37° C. for 4 hours at which time the solutions was aspirated from each well. Then 50 μL DMSO (Sigma) was added to each well to dissolve the crystalline product. Viability was determined by measuring the absorbance of the purple crystal produced. This was measured by reading the absorbance at 595 nm in a plate reader; the data was standardized to each control as an internal standard. Statistically was investigated using One-way ANOVA and Tukey's post hoc test where *p<0.05.
On the technique in general: Tetrazolium dyes change colour on reduction, which living cells bring about.

The subject of the next series is retinal ganglion cells. The experiment in a line: In vivo retinal ischaemia-reperfusion model, Tonabersat. Details: species or system Wistar rats. The settings on record: 7 days; for Retinal ganglion cell density: ischaemic eyes, mean±standard error. The method, then:
Animals were anesthetized with an intraperitoneal injection of ketamine (60 mg/kg) and medetomidine hydrochloride (0.4 mg/kg) and the cornea anaesthetized with oxybuprocaine hydrochloride (0.4%). The technique of retinal ischaemia-reperfusion has previously been described (D. Sun, et al., The Journal of comparative neurology 505, 114 (Nov. 1, 2007)). Briefly, the left anterior chamber was cannulated with a 30-gauge infusion needle connected by silicone tubing to a reservoir of sterile 0.9% saline. Cannulation was performed using a stereotaxic manipulator arm to avoid injury to the corneal endothelium, iris, or lens. The intraocular pressure of the cannulated eye was raised to 120 mmHg for 60 minutes by elevating the saline reservoir. Retinal ischaemia-reperfusion was confirmed by pallor of the posterior segment. After 60 minutes, the cannula was removed and reperfusion of the retinal vessels was confirmed by ophthalmoscopy. Three experimental arms were applied at the end of 60 minutes of ischaemia. These included: no treatment (n=6), 10 mg/kg Tonabersat (n=6), or 1 mg/kg Tonabersat (n=4). Systemic delivery of 0.25 mL of a 10 mg/ml or 1 mg/ml Tonabersat solution diluted in 40% PEG, 60% cyclodextrin solution was achieved through intraperitoneal delivery at the start of reperfusion. A final blood Tonabersat concentration of 0.319 mM or 0.0319 mM was intended, assuming a blood volume of 20 mL and total systemic uptake of peptide. Animals were euthanized with CO2 at 7 days after reperfusion. One uninjured animal was euthanized to obtain uninjured retinas as normal controls.
After euthanasia eyes were enucleated, and the cornea, lens, and vitreous humour removed. The dorsal aspect of the retina was notched to retain orientation. The retina and sclera were fixed in 4% PFA in PBS for 60 minutes at room temperature (RT). The retina was then carefully removed from the sclera and permeabilized via incubation in 0.5% Triton-X100 in PBS solution for 15 minutes at […] Retinas were mounted onto SuperFrost Plus slides using citifluor mounting medium, and imaged.
Two fields in each quadrant of each retina were imaged giving a total of eight images per retina. This method insured similar locations were assessed between different eyes and avoided any possible area bias present in the retina. Retinal ganglion cell (RGC) labelling was imaged at 10× magnification. […] Spots of one or two pixels that resulted from noise and artefacts that were clearly not RGC of origin were excluded during particle counts. RGC density was calculated as the number of RGCs per cm2.

Series [1] addresses T1, Cx43 GJ plaques in ARPE-19 cells (Homo sapiens, UniProt P17302).
T1 construct: a native human cell line, retinal pigmented epithelial cells (ARPE-19), which reportedly has an abundant expression of Cx43; endogenous in cells; host or cells: ARPE-19
The experiment in a line: Immunocytochemistry and quantification of Cx43 plaques. In kind it is cell-based. The method, then:
In the below Examples 3, 6 and 7 using human retinal epithelial (ARPE-19) cells, the cells were grown in DMEM/F: 12 (Invitrogen), supplemented with 10% fetal calf serum (FCS), 100 units/mL of penicillin, 100 μg/mL of streptomycin, and 0.25 μg/mL of Fungizone® Antimycotic (Invitrogen).
Cells were seeded at 0.05×10^6 per well in 8-well sterile glass microscope chamber slides (Falcon, Corning Life Sciences), and the monolayer was labeled for connexin expression at ˜90-100% confluency. The following steps were conducted at room temperature. Cells were fixed in 4% paraformaldehyde (P6148, Sigma-Aldrich) in PBS with 0.1 mM CaCl2 for 10 min, and washed three times in PBS with 0.1 mM CaCl2. After blocking in 10% normal goat serum in PBS with 0.1 mM CaCl2 for one hour, cells were incubated overnight in primary antibody solution (rabbit anti-Cx43, Sigma C6219) diluted in PBS with 0.1 mM CaCl2. The chamber slides were then washed three times with PBS containing 0.1 mM CaCl2 for 10 minutes, and incubated for a further 45 minutes in goat anti-rabbit Alexa 568 conjugated secondary antibody (Invitrogen #A11036). Cells were counter labeled with DAPI for 5 minutes and washed three times with PBS containing 0.1 mM CaCl2. Chamber wells were removed and cells were mounted anti-fade medium (Citiflour AF-1). Dilution ratios for specified primary and secondary antibodies were used according to manufacturer's recommendations.
ARPE-19 cells were grown until confluent in 8-well glass chamber-slides (BD Falcon). Confluent monolayers of ARPE-19 cells were incubated at a final concentration of 5 to 500 μM) Tonabersat, and/or 10 mM NH4Cl (H. Qin, et al., The Journal of biological chemistry 278, 30005 (Aug. 8, 2003)) in culture medium for 1 or 6 hours. Cells were fixed in 4% PFA (ProSciTech) at pH 7.4 for 10 min at room temperature, permeabilized with 0.05% Triton-X100 in PBS, and incubated in 10% normal goat serum to block non-specific labelling. Cells were rinsed three times with PBS containing 0.1 mM CaCl2 between each fixation, permeabilization, and blocking steps. Cx43 polyclonal rabbit antibody (C6219, Sigma, 1:2000) was applied for 24 hours, followed by a goat anti-rabbit Alexa Fluor® 568 secondary antibody (Invitrogen, 1:200) for 45 minutes. Nuclei were counterstained with DAPI (Invitrogen) at 10,000-fold dilution for 5 mins, and mounted with Citifluor™ mounting medium. Images were visualised and captured using a 63× oil immersion lens on an Olympus FV1000 upright confocal laser scanning microscope and software. The transfluor feature in MetaXpress® Image acquisition and analysis software (Version 5.3.0.1, Molecular Devices) was used to automate and quantify the total area of Cx43 plaques per image. Results represent mean±standard error and statistical tests were conducted using one-way ANOVA and Tukey's multiple comparisons test.

The structures appear in SMILES notation. “Also recorded” adds a separate entry of the source.

T1 sequence (P17302 2-382 limits assumed): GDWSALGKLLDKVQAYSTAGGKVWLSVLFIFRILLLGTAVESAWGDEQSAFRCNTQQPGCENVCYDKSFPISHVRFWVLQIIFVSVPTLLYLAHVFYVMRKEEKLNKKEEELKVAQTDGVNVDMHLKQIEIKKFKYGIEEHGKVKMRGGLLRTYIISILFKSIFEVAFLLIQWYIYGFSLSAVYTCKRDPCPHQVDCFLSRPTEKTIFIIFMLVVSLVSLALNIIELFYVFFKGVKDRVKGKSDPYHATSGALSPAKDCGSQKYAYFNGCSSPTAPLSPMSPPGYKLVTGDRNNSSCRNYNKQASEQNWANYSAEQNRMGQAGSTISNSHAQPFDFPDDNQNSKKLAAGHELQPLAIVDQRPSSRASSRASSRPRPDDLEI

With `CC(=O)c1ccc2c(c1)[C@H](NC(=O)c1ccc(F)c(Cl)c1)[C@H](O)C(C)(C)O2` [Tonabersat, N-[(3S,4S)-6-acetyl-3-hydroxy-2,2-dimethyl-3,4-dihydrochromen-4-yl]-3-chloro-4-fluorobenzamide], in the series on hCMVEC cells, the cell viability result is recorded as “did not significantly reduce cell viability”. Further, the “RGC loss compared to normal controls” value was 18% in the series with retinal ganglion cells (1 mg/kg intraperitoneal at start of reperfusion) and 35% in the series with retinal ganglion cells (10 mg/kg intraperitoneal at start of reperfusion). Further, the entries for the “Retinal ganglion cell density” value with retinal ganglion cells (1 mg/kg intraperitoneal) and with retinal ganglion cells (10 mg/kg intraperitoneal) were 199927±26058 cells/cm2 and 158739±26370 cells/cm2, respectively. For the same compound, the “total area of Cx43 plaques per cell, normalized to untreated control” value is on record as “no significant reduction in Cx43 plaques” in series [1] (5 μM, 10 μM or 50 μM, 1 hour); 52.8±5.6% in series [1] (100 μM, 1 hour); 66.5±5.4% in series [1] (100 μM, 6 hours); 63.2±5.6% in series [1] (200 μM, 1 hour); 62.5±2.3% in series [1] (200 μM, 6 hours); 60.2±13.6% in series [1] (500 μM, 6 hours). In addition, the “Connexin43 gap junction labelling” value in series [1] (50 μM, 6 hours) is listed as “most junctions have been internalised or lost; also recorded: total gap junction loss at cell-cell interfaces”; in series [1] (100 micromolar, 6 hours) it was “very little Connexin43 labelling remains”. Moreover, the “increase in Cx43 labelling with 10 mM NH4Cl compared to Tonabersat alone” value was determined as 104.8% in series [1] (100 μM, 1 hour) and 65.4% in series [1] (200 μM, 1 hour).

For the origin of these results see US11401516B2, “Channel modulators” (AUCKLAND UNISERVICES LIMITED, priority 2014, dated 2022).
